Experimental data published in patent US12077503B2, “Substituted cyclic amides and their use as herbicides” (FMC CORPORATION, priority 2015, dated 2024).

How the values were obtained:
Experiment in all cases: Test A postemergence
Type in all cases: in vivo
[1] = test system: pigweed (Amaranthus retroflexus); details: Amaranthus retroflexus, post-emergence, 240 h, 125 g ai/ha, postemergence, visual injury rating after approximately 10 d; read-out: Pigweed plant response rating (0 to 100 scale, 0 no effect, 100 complete control)
Procedure, shortened: (§1)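 Seeds sprayed preemergence with a directed soil spray, or plants at 2 to 10 cm height and one- to two-leaf stage sprayed postemergence, with test chemicals in a non-phytotoxic solvent mixture containing surfactant, in loam soil–sand blend. Injury rated visually against untreated controls after about 10 d in greenhouse, 0 (no effect) to 100 (complete control).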

[2] = test system: blackgrass (Alopecurus myosuroides); details: Alopecurus myosuroides, post-emergence, 240 h, 125 g ai/ha, postemergence, visual injury rating after approximately 10 d; read-out: Blackgrass plant response rating (0 to 100 scale, 0 no effect, 100 complete control)
Procedure, shortened: as §1

[3] = test system: ragweed (common ragweed, Ambrosia elatior); details: Ambrosia artemisiifolia, post-emergence, 240 h, 125 g ai/ha, postemergence, visual injury rating after approximately 10 d; read-out: Ragweed plant response rating (0 to 100 scale, 0 no effect, 100 complete control)
Procedure, shortened: as §1

corn (Zea mays) = details: Zea mays, post-emergence, 240 h, 125 g ai/ha, postemergence, visual injury rating after approximately 10 d; read-out: Corn plant response rating (0 to 100 scale, 0 no effect, 100 complete control)
Procedure, shortened: as §1

[4] = test system: Galium (catchweed bedstraw, Galium aparine); details: Galium, post-emergence, 240 h, 125 g ai/ha, postemergence, visual injury rating after approximately 10 d; read-out: Galium plant response rating (0 to 100 scale, 0 no effect, 100 complete control)
Procedure, shortened: as §1

[5] = test system: ryegrass, Italian (Italian ryegrass, Lolium multiflorum); details: Lolium multiflorum, post-emergence, 240 h, 125 g ai/ha, postemergence, visual injury rating after approximately 10 d; read-out: Ryegrass, Italian plant response rating (0 to 100 scale, 0 no effect, 100 complete control)
Procedure, shortened: as §1

| Structure (SMILES) | pest or weed control at 125 g/ha [1] | pest or weed control at 125 g/ha [2] | pest or weed control at 125 g/ha [3] | plant injury at 125 g/ha (corn (Zea mays)) | pest or weed control at 125 g/ha [4] | pest or weed control at 125 g/ha [5] |
| --- | --- | --- | --- | --- | --- | --- |
| O=C1NC[C@H](c2ccc(F)c(OC(F)(F)C(F)(F)Br)c2)[C@H]1C(=O)Nc1cccc(F)c1F (racemic) [Compound 914] | 80% | 0% | 20% | 0% | 60% | 0% |
| CN1C[C@H](c2cccc(C3CC3)c2)[C@@H](C(=O)Nc2ccccc2S(C)(=O)=O)C1=O [Compound 817] | 0% | 40% | 0% | 50% | 40% | 30% |
| CN1C[C@H](c2cccc(C3CC3)c2)[C@@H](C(=O)Nc2ccc(F)cc2F)C1=O [Compound 818] | 20% | 30% | 0% | 40% | 50% | 40% |
| CC(C)c1cccc([C@H]2CN(C)C(=O)[C@@H]2C(=O)Nc2ccccc2F)c1 [Compound 819] | 30% | 60% | 0% | 40% | 50% | 70% |
| CN1C[C@H](c2cccc(F)c2)[C@@H](C(=O)Nc2ccccc2C(F)(F)F)C1=O [Compound 823] | 20% | 20% | 20% | 0% | 30% | 0% |
| N#Cc1cccc(NC(=O)[C@H]2C(=O)NC[C@@H]2c2cccc(C(F)(F)F)c2)c1F [Compound 829] | 0% | 40% | 0% | 30% | 30% | 20% |
| CS(=O)(=O)c1ccccc1NC(=O)[C@H]1C(=O)NC[C@@H]1c1cc(F)c(C(F)(F)F)c(F)c1 [Compound 839] | 80% | – | 60% | 30% | 80% | 50% |
| COc1ccccc1NC(=O)[C@H]1C(=O)N(C)C[C@@H]1c1ccc(C(F)(F)F)cc1 [Compound 843] | 20% | 0% | 0% | 0% | 30% | 0% |
| Cc1cc(F)cc([C@H]2CNC(=O)[C@@H]2C(=O)Nc2ccc(F)c(F)c2F)c1 [Compound 848] | 0% | 0% | 0% | 0% | 30% | 0% |
| Cc1cc(F)cc([C@H]2CN(C)C(=O)[C@@H]2C(=O)Nc2cccc(F)c2F)c1 [Compound 849] | 0% | 30% | 0% | 70% | 60% | 0% |
| Cc1cc(F)cc([C@H]2CN(C)C(=O)[C@@H]2C(=O)Nc2ccccc2F)c1 [Compound 850] | 0% | 0% | 0% | 30% | 30% | 0% |
| COc1ccc([C@H]2CN(C)C(=O)[C@@H]2C(=O)Nc2ccccc2F)cc1OC [Compound 852] | 0% | 0% | 0% | 0% | 0% | 0% |
| COc1ccc([C@H]2CN(C)C(=O)[C@@H]2C(=O)Nc2cccc(F)c2F)cc1OC [Compound 853] | 0% | 20% | 0% | 0% | 0% | 0% |
| COc1ccc([C@H]2CN(C)C(=O)[C@@H]2C(=O)Nc2ccccc2SC)cc1OC [Compound 854] | 0% | 0% | 0% | 0% | 0% | 0% |
| COc1cc([C@H]2CN(C)C(=O)[C@@H]2C(=O)Nc2cccc(F)c2F)cc(C(F)(F)F)c1 [Compound 856] | 20% | 60% | 0% | 80% | 40% | 40% |
| COc1cc(C(F)(F)F)ccc1[C@H]1CN(C)C(=O)[C@@H]1C(=O)Nc1cccc(F)c1F [Compound 859] | 20% | 30% | 0% | 50% | 50% | 20% |
| COc1cc(C(F)(F)F)ccc1[C@H]1CN(C)C(=O)[C@@H]1C(=O)Nc1ccccc1SC [Compound 860] | 0% | 0% | 0% | 0% | 20% | 0% |
| CSc1ccccc1NC(=O)[C@H]1C(=O)NC[C@@H]1c1cccc2c1OC(F)(F)O2 [Compound 865] | 0% | 0% | 0% | 0% | 0% | 0% |
| CSc1ccccc1NC(=O)[C@H]1C(=O)N(C)C[C@@H]1c1cc(F)c(F)c(F)c1 [Compound 866] | 0% | 0% | 0% | 30% | 20% | 20% |
| CN1C[C@H](c2cc(F)cc(F)c2)[C@@H](C(=O)Nc2ccccc2[S@+](C)[O-])C1=O [Compound 871] | 0% | 0% | 0% | 20% | 50% | 20% |
| Cc1c(F)cccc1NC(=O)[C@H]1C(=O)N(C)C[C@@H]1c1cccc(COC(F)F)c1 [Compound 874] | 0% | 60% | 20% | 50% | 20% | 20% |
| CN1C[C@H](c2cccc(COC(F)F)c2)[C@@H](C(=O)Nc2ccccc2F)C1=O [Compound 875] | 0% | 20% | 20% | 20% | 40% | 20% |
| CSc1ccccc1NC(=O)[C@H]1C(=O)N(C)C[C@@H]1c1cccc(COC(F)F)c1 [Compound 876] | 0% | 0% | 0% | 0% | 0% | 0% |
| CN1C[C@H](c2cc(F)c(F)c(F)c2)[C@@H](C(=O)Nc2ccccc2F)C1=O [Compound 878] | 0% | 60% | 20% | 50% | 50% | 40% |
| Cc1cc(C)cc([C@H]2CNC(=O)[C@@H]2C(=O)Nc2cccc(F)c2F)c1 [Compound 889] | 0% | 20% | 0% | 20% | 30% | 40% |
| COc1c(F)ccc([C@H]2CNC(=O)[C@@H]2C(=O)Nc2ccc(F)c(F)c2F)c1Cl [Compound 890] | 0% | 20% | 0% | 20% | 50% | 0% |
| COc1c(F)ccc([C@H]2CNC(=O)[C@@H]2C(=O)Nc2ccccc2C(F)(F)F)c1Cl [Compound 891] | 0% | 0% | 0% | 20% | 30% | 0% |
